Data published in US20040062782A1, “Addition of insect repellent during rinse cycle” (priority 2002, published 2004).

System: insects
Assay: Insect repellence of articles treated with DEET during the rinse cycle of an automated washing machine
Format: in vivo
Procedure: The present invention centers around adding a insect repellent to articles during the rinse cycle of a washing machine. During the rinse cycle, detergent and stains are dissolved into the fluid medium, while the insect repellent is added to the fluid medium and disseminates throughout the fluid medium and articles within the washing machine and is retained by the contents of the washing machine as the fluid medium is partially removed. As the damp articles are removed from the washing machine and subsequently dried, the insect repellent is retained therein as the fluid medium is removed. While there are various application rates of DEET that produce the desired effect of repelling insects from articles under different conditions, it has been found sufficient to provide along the order of 1 fluid ounce of DEET to the articles during the rinse cycle of an automated washing machine. […] It is also within the scope and spirit of the present invention to add […] more than 1 fluid ounce to increase the concentration of DEET retained by the articles after the rinse cycle is complete. For example, if the articles may be exposed to elevated temperatures for an extended period, say 2 hours or more, the amount of DEET added during the rinse cycle may be higher to compensate for the higher amount of DEET emanating from the articles at the elevated temperatures. […] However, higher or lower ratios may be utilized depending upon the conditions of intended use of the articles or the intended duration of insect repellence. As discussed above, the ratio may be […] along the lines of 1:1 to 2:1 to impart insect repellence in accordance with increased exposure to elevated temperatures, and/or to provide insect repellence during a longer duration.

CCN(CC)C(=O)c1cccc(C)c1 [DEET, N,N-diethyl-m-toluamide]
insect repellence (duration) while the article is being used (on the order of 1 fluid ounce of DEET added to the articles during the rinse cycle, article in use): approximately 24 hours | extended insect repellence (duration) for stored articles (on the order of 1 fluid ounce of DEET added to the articles during the rinse cycle, stored articles): approximately one month | repelling insects from the articles (ratio of 4:1 to 5:1 (in fluid ounces) of fabric softener and/or other components to DEET, added to the rinse cycle): provides the desired effect of repelling insects from the articles
